Results published in US9771370B2, “Compounds for the inhibition of indoleamine-2,3-dioxygenase” (Merck Patent GmbH, priority 2014, dated 2017).

Target: Recombinant human IDO (Homo sapiens, UniProt P14902)
Assay: Bridge-IT tryptophan fluorescence assay of human IDO-1 inhibition
Assay type: biochemical
Details: recombinant human IDO 7.5 nM, L-tryptophan
Summary of the method: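 One variant ran L-Trp at 100 μM for 90 min at 37 °C. The other pre-incubated compound for 30 min at 25 °C, then ran 50 μM L-Trp for 60 min at 25 °C.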

Recombinant human IDO, sequence (P14902 whole entry): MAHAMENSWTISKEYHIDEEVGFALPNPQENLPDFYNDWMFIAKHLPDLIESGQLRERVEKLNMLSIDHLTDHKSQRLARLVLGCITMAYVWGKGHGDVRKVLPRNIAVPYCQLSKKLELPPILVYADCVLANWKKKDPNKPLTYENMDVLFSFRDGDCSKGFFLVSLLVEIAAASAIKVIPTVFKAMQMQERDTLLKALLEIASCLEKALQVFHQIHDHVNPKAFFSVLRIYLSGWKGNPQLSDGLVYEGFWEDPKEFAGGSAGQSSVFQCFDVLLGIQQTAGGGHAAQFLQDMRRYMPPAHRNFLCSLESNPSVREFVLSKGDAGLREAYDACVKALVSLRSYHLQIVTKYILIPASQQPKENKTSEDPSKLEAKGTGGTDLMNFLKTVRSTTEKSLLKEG

Structure (SMILES) | IC50 [nM]
FC(CC1c2ncccc2-c2cncn21)C1CCCCC1 (single isomer, unassigned) [Compound 97b, 7-[2-cyclohexyl-2-fluoroethyl]-4,6,9-triazatricyclo[6.4.0.0^[2,6]]dodeca-1(8),2,4,9,11-pentaene] | 100 to 1000
FC(CC1c2ncccc2-c2cncn21)C1CCCCC1 (single isomer, unassigned) [Compound 97c, 7-[2-cyclohexyl-2-fluoroethyl]-4,6,9-triazatricyclo[6.4.0.0^[2,6]]dodeca-1(8),2,4,9,11-pentaene] | 100 to 1000
FC(CC1c2ncccc2-c2cncn21)C1CCCCC1 (single isomer, unassigned) [Compound 97d, 7-[2-cyclohexyl-2-fluoroethyl]-4,6,9-triazatricyclo[6.4.0.0^[2,6]]dodeca-1(8),2,4,9,11-pentaene] | > 1000
Fc1cccc2c1C(CC(F)C1CCCCC1)n1cncc1-2 (single isomer, unassigned) [Compound 98a, 5-[2-cyclohexyl-2-fluoroethyl]-6-fluoro-5H-imidazo[4,3-a]isoindole] | 100 to 1000
Fc1cccc2c1C(CC(F)C1CCCCC1)n1cncc1-2 (single isomer, unassigned) [Compound 98b, 5-[2-cyclohexyl-2-fluoroethyl]-6-fluoro-5H-imidazo[4,3-a]isoindole] | < 100

The remaining lines, values ahead:

IC50 [nM] | Structure (SMILES)
> 1000 | NC(=O)C1CCC(F)(CCC2c3c(Cl)cccc3-c3cncn32)CC1 (single isomer, unassigned) [Compound 99a, 4-[2-[6-chloro-5H-imidazo[4,3-a]isoindol-5-yl]ethyl]-4-fluorocyclohexane-1-carboxamide]
100 to 1000 | NC(=O)C1CCC(F)(CCC2c3c(Cl)cccc3-c3cncn32)CC1 (single isomer, unassigned) [Compound 99b, 4-[2-[6-chloro-5H-imidazo[4,3-a]isoindol-5-yl]ethyl]-4-fluorocyclohexane-1-carboxamide]
< 100 | NC(=O)C1CCC(F)(CCC2c3c(Cl)cccc3-c3cncn32)CC1 (single isomer, unassigned) [Compound 99c, 4-[2-[6-chloro-5H-imidazo[4,3-a]isoindol-5-yl]ethyl]-4-fluorocyclohexane-1-carboxamide]
> 1000 | NC(=O)C1CCC(F)(CCC2c3c(Cl)cccc3-c3cncn32)CC1 (single isomer, unassigned) [Compound 99d, 4-[2-[6-chloro-5H-imidazo[4,3-a]isoindol-5-yl]ethyl]-4-fluorocyclohexane-1-carboxamide]
> 1000 | OC(CC1c2nccc(F)c2-c2cncn21)C1CCCCC1 (single isomer, unassigned) [Compound 101a, 1-cyclohexyl-2-[12-fluoro-4,6,9-triazatricyclo[6.4.0.0^[2,6]]dodeca-1(8),2,4,9,11-pentaen-7-yl]ethan-1-ol]
> 1000 | OC(CC1c2nccc(F)c2-c2cncn21)C1CCCCC1 (single isomer, unassigned) [Compound 101b, 1-cyclohexyl-2-[12-fluoro-4,6,9-triazatricyclo[6.4.0.0^[2,6]]dodeca-1(8),2,4,9,11-pentaen-7-yl]ethan-1-ol]
> 1000 | OC(CC1c2nccc(F)c2-c2cncn21)C1CCCCC1 (single isomer, unassigned) [Compound 101c, 1-cyclohexyl-2-[12-fluoro-4,6,9-triazatricyclo[6.4.0.0^[2,6]]dodeca-1(8),2,4,9,11-pentaen-7-yl]ethan-1-ol]
> 1000 | OC(CC1c2nccc(F)c2-c2cncn21)C1CCCCC1 (single isomer, unassigned) [Compound 101d, 1-cyclohexyl-2-[12-fluoro-4,6,9-triazatricyclo[6.4.0.0^[2,6]]dodeca-1(8),2,4,9,11-pentaen-7-yl]ethan-1-ol]
> 1000 | Fc1ccnc2c1-c1cncn1C2CCC1(F)CCCCC1 (single isomer, unassigned) [Compound 102a, 12-fluoro-7-[2-(1-fluorocyclohexyl)ethyl]-4,6,9-triazatricyclo[6.4.0.0^[2,6]]dodeca-1(8),2,4,9,11-pentaene]
